# Publication PMC6522096, “Development and Evaluation of an ^18F-Radiolabeled Monocyclam Derivative for Imaging CXCR4 Expression” (Molecular Pharmaceutics, 2019)
# Target: T1, CXCR4 (Homo sapiens, UniProt P61073)
# T1 construct: full-length receptor overexpressed in U87.CD4.CXCR4 glioma cells
# Experiment: […]SDF-1 (CXCL12) displacement on U87.CD4.CXCR4 cells
# Type: cell-based
# T1 sequence (P61073 whole entry): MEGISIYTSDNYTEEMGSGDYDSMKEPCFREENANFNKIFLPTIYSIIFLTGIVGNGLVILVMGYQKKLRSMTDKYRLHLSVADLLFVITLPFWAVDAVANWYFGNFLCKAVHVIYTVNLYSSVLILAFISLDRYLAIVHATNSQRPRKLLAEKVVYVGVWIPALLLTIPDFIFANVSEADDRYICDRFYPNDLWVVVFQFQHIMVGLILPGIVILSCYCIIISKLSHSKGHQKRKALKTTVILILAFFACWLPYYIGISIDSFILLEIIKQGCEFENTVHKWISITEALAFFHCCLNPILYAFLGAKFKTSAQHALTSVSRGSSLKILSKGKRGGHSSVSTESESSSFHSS
row,SMILES,IC50 [nM]
1,c1ccc(CNCc2ccc(CN3CCCNCCNCCCNCC3)cc2)nc1 [AMD3465],89.8 ± 3.5
2,"Fc1ccc(CNCCNCc2ccc(CN3CCCNCCNCCCNCC3)cc2)cc1 [compound 5, N^1-(4-((1,4,8,11-Tetraazacyclotetradecan-1-yl)methyl)benzyl)-N^2-(4-fluorobenzyl)ethane-1,2-diamine]",111 ± 4
